Like-named read-outs stand apart in the source and are kept apart here.
Key:
[1] = for Percent of Initial NaClO2 Remaining 2 Hours after Mixing / Percent of Initial NaClO2 Remaining 5 Hours after Mixing: buffer
[2] = Assay for measuring the Reduced Chlorite Demand Factor (Example 9); format: physicochemical; settings: pH 2.5
[3] = Chlorine dioxide generation by UV/Visible spectrophotometry at 360 nm (Example 6); format: physicochemical; settings: pH 2.5, no colorant
[4] = buffer, pH 2.5
[5] = Colorant effect on chlorite consumption (Example 2); format: physicochemical; settings: disinfecting composition A of Example 1 with essentially equimolar colorant: 0.41% Blue #1, 0.26% Blue #2, 0.30% Yellow #5, 0.25% Yellow #6, 0.28% Red #40
Protocol: To determine how increasing levels of colorant causes a more rapid consumption of chlorite, the disinfecting composition A of Example 1 was prepared with either 0% (control), 0.03%, 0.15%, 0.30% or 0.60% by weight FD&C Yellow #5.
This experiment was then repeated using essentially equimolar concentrations of the following FD&C colorants: 0.41% Blue #1, 0.26% Blue #2, 0.30% Yellow #5, 0.25% Yellow #6, 0.28% Red #40 and no colorant (control).

[6] = Effect of nitrogenous stabilizer on chlorite consumption in a nil colorant composition (Example 7); format: physicochemical
[7] = composition with FD&C Yellow #5, pH 2.5, versus control
[8] = stabilizer at 1.33 M, five hours after mixing, versus control without stabilizer
[9] = level (Wt %): ethylenediamine 1.0, monoethanolamine 2.0, glycine 2.5

In the case of `NCS(=O)(=O)O` [Aminomethanesulfonic Acid], the “effect on rate of sodium chlorite consumption / chlorite longevity (in words)” value [1, 7] was “solid chlorite longevity benefits”.

With `Nc1ccccc1` [Aniline] the “effect on rate of sodium chlorite consumption / chlorite longevity (in words)” value [1, 7] was “promote greater chlorite longevity”.

With `OCCNCCO` [Diethanolamine] the “Reduced Chlorite Demand Factor” value [2, 8] was 0.9.

With `NCCN` [Ethylenediamine] the “Level of ClO2 after 1 hour” value [3, 9] was 35 ppm, the “Reduced Chlorite Demand Factor” value [2, 8] was 4.0 and the “Percent of Initial NaClO2 Remaining 2 Hours after Mixing” value ([1]; pH 2.5) was 92%. For the same compound, the “Percent of Initial NaClO2 Remaining 5 Hours after Mixing” value ([1]; pH 2.5) was 80% and the “Percent of Initial Colorant Remaining 2 Hours after Mixing” value [4] was 91%.

In the case of `CCN(Cc1cccc(S(=O)(=O)[O-])c1)c1ccc(C(=C2C=CC(=[N+](CC)Cc3cccc(S(=O)(=O)[O-])c3)C=C2)c2ccccc2S(=O)(=O)[O-])cc1.[Na+].[Na+]` [FD&C Blue #1], the “Percent of Initial NaClO2 Remaining 5 Hours after Mixing” value [5] was less than 2%.

With `O=C1/C(=C2\Nc3ccc(S(=O)(=O)[O-])cc3C2=O)Nc2ccc(S(=O)(=O)[O-])cc21.[Na+].[Na+]` [FD&C Blue #2] the “Percent of Initial NaClO2 Remaining 5 Hours after Mixing” value [5] was 43%.

With `COc1cc(S(=O)(=O)[O-])c(C)cc1N=Nc1c(O)ccc2cc(S(=O)(=O)[O-])ccc12.[Na+].[Na+]` [FD&C Red #40] the “Percent of Initial NaClO2 Remaining 5 Hours after Mixing” value [5] was 60%.

In the case of `O=C([O-])C1=NN(c2ccc(S(=O)(=O)[O-])cc2)C(=O)C1N=Nc1ccc(S(=O)(=O)[O-])cc1.[Na+].[Na+].[Na+]` (stereo not shown) [FD&C Yellow #5], the “Percent of Initial NaClO2 Remaining 5 Hours after Mixing” value [5] was 27%.

With `O=S(=O)([O-])c1ccc(N=Nc2c(O)ccc3cc(S(=O)(=O)[O-])ccc23)cc1.[Na+].[Na+]` [FD&C Yellow #6] the “Percent of Initial NaClO2 Remaining 5 Hours after Mixing” value [5] was 18%.

With `NCC(=O)O` [Glycine] the “Level of ClO2 after 1 hour” value [3, 9] was 105 ppm, the “Reduced Chlorite Demand Factor” value [2, 8] was 3.8 and the “Percent of Initial NaClO2 Remaining 2 Hours after Mixing” value ([1]; pH 2.5) was 78%. The “Percent of Initial NaClO2 Remaining 5 Hours after Mixing” value ([1]; pH 2.5) was 42% and the “Percent of Initial Colorant Remaining 2 Hours after Mixing” value [4] was 61%.

For `CNS(=O)(=O)O` [Methylsulfamic Acid], the “effect on rate of sodium chlorite consumption / chlorite longevity (in words)” value [1, 7] was “particularly effective”.

In the case of `NCCO` [Monoethanolamine], the “Level of ClO2 after 1 hour” value [3, 9] was 66 ppm, the “Reduced Chlorite Demand Factor” value [2, 8] was 4.1 and the “Percent of Initial NaClO2 Remaining 2 Hours after Mixing” value ([1]; pH 2.5) was 86%. For the same compound, the “Percent of Initial NaClO2 Remaining 5 Hours after Mixing” value ([1]; pH 2.5) was 45% and the “Percent of Initial Colorant Remaining 2 Hours after Mixing” value [4] was 49%.

With `NS(=O)(=O)O` [Sulfamic Acid] the “Percent of Initial NaClO2 After 2 Hours” value ([6]; stabilizer level 0.25 Wt %) was 97%, the “Percent of Initial NaClO2 After 5 hours” value ([6]; stabilizer level 0.25 Wt %) was 94% and the “Percent of Initial NaClO2 After 2 Hours” value ([6]; stabilizer level 0.50 Wt %) was 97%. The “Percent of Initial NaClO2 After 5 hours” value ([6]; stabilizer level 0.50 Wt %) was 94%, the “Level of ClO2 after 1 hour” value ([3]; stabilizer level 0.25 Wt %) was 17 ppm and the “Level of ClO2 after 1 hour” value ([3]; stabilizer level 0.50 Wt %) was 17 ppm. The “Reduced Chlorite Demand Factor” value [2] was 4.5, the “Percent of Initial NaClO2 Remaining 2 Hours after Mixing” value ([1]; pH 2.5) was 98% and the “Percent of Initial NaClO2 Remaining 5 Hours after Mixing” value ([1]; pH 2.5) was 95%. For the same compound, the “effect on rate of sodium chlorite consumption / chlorite longevity (in words)” value ([1]; pH 2.5) was “significantly impact the rate of sodium chlorite consumption” and the “Percent of Initial Colorant Remaining 2 Hours after Mixing” value [4] was 97%.

With `Nc1ccc(S(N)(=O)=O)cc1` [Sulfanilamide] the “Reduced Chlorite Demand Factor” value ([2]; tested at 0.5% due to lower solubility, five hours after mixing) was 5.6 and the “effect on rate of sodium chlorite consumption / chlorite longevity (in words)” value [1, 7] was “promote greater chlorite longevity”.

With `NCCS(=O)(=O)O` [Taurine] the “effect on rate of sodium chlorite consumption / chlorite longevity (in words)” value [1, 7] was “solid chlorite longevity benefits”.

In the case of `NC(N)=O` [Urea], the “Reduced Chlorite Demand Factor” value [2, 8] was 4.3 and the “effect on rate of sodium chlorite consumption / chlorite longevity (in words)” value [1, 7] was “provides longevity benefits”.

For Aniline Sulfonic Acid, the “Percent of Initial NaClO2 After 2 Hours” value ([1]; pH 2.5) was 90%, the “Percent of Initial NaClO2 After 5 hours” value ([1]; pH 2.5) was 75% and the “effect on rate of sodium chlorite consumption / chlorite longevity (in words)” value ([1]; pH 2.5) was “promote greater chlorite longevity”.

Reference: patent US8388990B2, “Acidified chlorite compositions containing nitrogenous stabilizers and systems and methods related thereto” (Ecolab USA Inc., priority 2002, dated 2013)
